From patent publication US11944092B2, “Compositions for controlling phytoplankton contamination” (BLUEGREEN WATER TECHNOLOGIES LTD., priority 2019, dated 2024)
Blank lines part the entries; values can stand above or below the molecule they belong to.

Assays:
[1] = Buoyancy by weighing-pan set-up (FIG. 2); type: physicochemical
Description: FIG. 2 schematically illustrates an experimental set-up for testing the buoyancy of the herein disclosed compositions, including (1) a balance; (2) a measuring pod with an aperture; (3) an underneath hook to measure weight; (4) a beaker filled with water simulating an aquatic system; (5) a weighing-pan.
In order to test the buoyancy of the herein disclosed compositions, an experimental set-up, schematically illustrated in FIG. 2, was applied. In this set-up, a laboratory balance 1 (0-2,000±0.1 g) was positioned to measure the weight of a composition placed on a weighing-pan 5 immersed in a beaker filled with water 4. If the composition is non-buoyant (AI without the coating material) an increase in weight is anticipated (‘negative control’). Oppositely, if the composition is buoyant, the weight is expected to remain essentially unchanged.

Microcystis [2] = conditions: in vivo
Microcystis [3] = conditions: cited from earlier work
Planktothrix agardhii [4] = conditions: cited from earlier work
Planktothrix agardhii [5] = conditions: equivalent of 2.5 mg/L in 1140 L, 9500 cm^2
[6] = Buoyancy and resurfacing of coated copper sulfate compositions in water (vials, glasses; visual); type: physicochemical; conditions: granular copper sulfate with different % (w/w) coating placed in water, FIG. 1
[7] = system: algal bloom (cyanobacterial biomass); assay: Seasonal treatment of algal bloom at ~1.04 km^2 irrigation pond; type: in vivo
Method: As detailed in FIG. 9, biomass and total copper concentrations were measured during the first two days to assess efficacy and minimal required AI concentrations. Cyanobacterial biomass was measured using a YSI Exo-3 probe that was supplied with a GPS. […] Water samples for total copper concentrations, as well as estimation of particle time travel on the water, as well as final coverage, was done with a kayak and by using a laser distance/range measurer. Total copper concentrations were measured with a YSI 9300 photometer in accordance with manufacturer instructions.

[8] = Sedimentation analysis in 10-liter cylinders with sediment; type: physicochemical; conditions: 10-liter cylinder, after one hour, FIG. 6
Method: Two 10-liter cylinders were filled with water and supplemented with sediment. To one cylinder, granules of copper sulfate pentahydrate (mimicking standard treatment) were added, while a buoyant copper-based composition was added to the other cylinder.

[9] = Buoyancy of sodium percarbonate in 15 ml vials; type: physicochemical; conditions: 5 grams, FIG. 5

Molecule: O=c1nc([O-])n(Cl)c(=O)n1Cl.[Na+] [un-encapsulated NADCC, sodium dichloroisocyanurate]
weight increase on weighing-pan ([1]; 9.5 grams placed on the weighing-pan in water): ~5.3 g

Molecule: OO [H2O2, hydrogen peroxide]
H2O2 amount per surface area at which Microcystis decreased (Microcystis [2]): ≥ 2.44 gr/m^2
H2O2 dose at which abundance of Microcystis decreased (Microcystis [3]; 150 L mesocosm): ≥ 4 mg/L
cell density of Microcystis (Microcystis [3]; H2O2 dose 2 mg/L): did not decrease
time to reappearance of high Microcystis cell density (Microcystis [3]; H2O2 dose of 2 mg/L): 11 days
lowest H2O2 concentration that sufficed to significantly reduce the P. agardhii population (Planktothrix agardhii [4]; Plexiglas containers, 2*10^6 cells/mL): 2.5 mg/L
photosynthetic performance and cell counts of zooplankton population (Planktothrix agardhii [4]; at 2.5 mg/L H2O2): severely reduced
time until cyanobacteria population started to recover (Planktothrix agardhii [4]; natural water body): 6-7 weeks
lowest effective H2O2 amount per surface area (Planktothrix agardhii [5]): 2.85 gr/m^2

Molecule: copper sulfate pentahydrate
buoyancy in water (floating, sinking, resurfacing) ([6]; listed as non-coated active ingredient (0.0% (w/w))): sank immediately to the bottom
buoyancy in water (floating, sinking, resurfacing) ([6]; listed as raw copper salt (“0% coating”)): sunk immediately after dispersion
average chlorophyll-a concentration ([7]; 2015, 6 aerial applications, total of 8,000 kg): 100-200 μg chlorophyll-a/L
average cyanobacterial concentration (chlorophyll-a) ([7]; 2016, 7 aerial applications of 2000 kg): 60 to 80 µg/L
behaviour in water column with sediment [8]: immediately sank into the sediment
weight increase on weighing-pan ([1]; samples of 100 grams, set-up of FIG. 2): 50%±3%

buoyancy in water [9]: sank immediately
Molecule: O=C([O-])[O-].O=C([O-])[O-].OO.OO.OO.[Na+].[Na+].[Na+].[Na+] [uncoated sodium percarbonate, sodium percarbonate]
